Assay results from patent US10428151B2, “Treatment of hematologic malignancies with an anti-CXCR4 antibody” (BRISTOL-MYERS SQUIBB COMPANY, priority 2011, dated 2019).
“Also recorded” adds a separate entry of the source. Values belong to the molecule of their own block, whether it stands above or below them.

Experiments:
[1] = system: RPMI-8226 cells; test: RPMI-8226 MM xenograft in SCID mice; assay type: in vivo
Method: The mice were randomized (n=8) when the tumor volume reached approximately 20 mm^3, dosed on Days 0, 3, 7, 10 and 14 with MDX-1338 (10 mg/kg/dose) alone or in combination with 50 mg/kg lenalidomide or in combination with 0.8 mg/kg bortezomib.

[2] = system: OPM-2 cells; test: OPM-2 MM xenograft in SCID mice
Description: OPM-2 cells (10 million) were implanted into SCID mice as described.

[3] = system: Bortezomib-resistant JJN-3R cells; test: JJN-3R MM xenograft in SCID mice; assay type: in vivo; conditions: lenalidomide 50 mg/kg/dose IP, bortezomib 0.8 mg/kg/dose IV
[4] = system: parental JJN-3 cells; test: JJN-3 MM xenograft in SCID mice; assay type: in vivo; conditions: bortezomib 0.8 mg/kg/dose IV, lenalidomide 50 mg/kg/dose IP
Description: 5 million JJN-3 cells/mouse were implanted into SCID mice and the mice were randomized into groups of 8 when the tumor volume reached approximately 77 mm^3.

[5] = system: MOLP-8 cells; test: MOLP-8 MM xenograft in SCID mice; assay type: in vivo; conditions: for efficacy in MOLP8 tumors: lenalidomide 50 mg/kg, bortezomib 0.8 mg/kg, BMS-936564 10 mg/kg/dose
Method: In all the experiments, the mice were injected intraperitoneally on Days 0 and 7 with an IgG4 isotype control and a PBS vehicle control.

[6] = system: Ramos cells; test: Ramos cell proliferation, Cell-Titer-Glo; assay type: cell-based, human; conditions: 72 hours
Method: Ramos cells were suspended at 1×10^5 cells/mL in growth media, incubated with the relevant antibodies, including isotype controls, and other test agents and cultured for 72 hours at 37° C. Cell-Titer-Glo (Promega) was added to wells, mixed, and incubated at room temperature for 10 minutes. The plate was read on a GloMax Luminometer (Promega).

[7] = system: Ramos cells; test: Apoptosis of Ramos cells, Annexin V-FITC/PI, vs AMD3100; assay type: cell-based, human; conditions: 24 hours, antibody 10 μg/mL, AMD3100 6 μM
Method: Cells were stained with Annexin V-FITC and propidium iodide (A). The percent of cells positive for Annexin V only or both Annexin V and PI double positive was determined (B).
Cells were stained with Annexin V-FITC and propidium iodide (PI).

[8] = system: MM.1S cells; test: MM.1S MM xenograft in SCID mice; assay type: in vivo
[9] = system: Ramos tumor cells; test: Ramos cell proliferation, 3H-thymidine incorporation; assay type: cell-based, human; conditions: 10^−3 to 300 nM; 72 hours
Method: In this example, the ability of the anti-CXCR4 human antibodies to inhibit proliferation of Ramos tumor cells (a human Burkitt's lymphoma cell line) in vitro was examined. […] The cells were incubated with antibody for 72 hours, with ^3H-thymidine being added for the final 24 hours of incubation to allow for monitoring of cell proliferation. Following the incubation, incorporation of ^3H-thymidine by the cells was measured by standard techniques. The results are shown in the graph of FIG. 11A.

[10] = target: T1, CXCR4 (Homo sapiens, UniProt P61073); test: CXCL12-induced migration of CEM cells (first experiment); assay type: cell-based; conditions: 5 nM CXCL12α
Method: The anti-CXCR4 antibodies were titrated in a 1:3 serial dilution series resulting in a concentration range from 100 nM to 1 pM and allowed to bind to labeled CEM cells at a density of 10 million cells per ml. As a negative control, an irrelevant antibody of the same isotype was used. Recombinant human CXCL12α (Peprotech) was added at 5 nM at 30 μl per well to the lower chamber of a 96 well Neuroprobe migration plate with 5.7 mm diameter filters per well. Each well contains […]. Labeled CEM cells with and without antibody were loaded onto the filters at a concentration of 0.5 million cells per well in a volume of 50 μl. The migration plate was incubated at 37° C. for 2.5 hours. […] The chemiluminescent signal was recorded on a Fusion instrument.

[11] = target: T1, CXCR4; test: CXCL12-induced calcium flux in CEM cells (Calcium 3 dye); assay type: cell-based; conditions: 50 nM CXCL12α
Description: As a negative control, an irrelevant antibody of the same isotype was used.

[12] = system: human umbilical vein endothelial cells (HuVEC); test: HuVEC capillary tube formation; assay type: cell-based; conditions: HuVEC on MATRIGEL, 18 hours
Method: In this example, the ability of the anti-CXCR4 human antibodies to inhibit capillary tube formation by human umbilical vein endothelial cells (HuVEC) was examined […]® was diluted 1:1 with RPMI and plated onto the wells of a 96 well plate and allowed to polymerize for 30 minutes at 37° C. HuVEC (from Cambrex, cat. # CC-2519) at 80% confluence were trypsinized and resuspended at 1×10^6 cells per ml in RPMI with 0.5% FBS. Antibodies were well mixed with HuVEC at a final concentration of 3 mg/ml and allowed to incubate at room temperature for 30 minutes. An irrelevant antibody of the same isotype or media alone was used as a negative control. As a positive control of inhibition of tube formation, a mouse anti-human αvβ3 (CD51/CD61) antibody (R&D Systems, cat. # MAB3050) was used. HuVEC with or without antibodies were plated onto the […]®-coated wells and incubated at 37° C. for 18 hours.
The HuVEC incubated with media alone or with the isotype-matched control antibody formed capillary tubes resulting in the appearance of connected cells across the plate with 3-5 points of connection or branch points per cell. […] The cells appeared isolated and with few or no branch points.

[13] = target: T1, CXCR4; test: Competition with FITC-labeled F9 for binding to CEM cells; conditions: 300 nM to 5 pM
Method: To determine the ability of a panel of anti-CXCR4 antibodies to compete for binding to CXCR4, competition studies were performed. […] The mixture of antibodies was then added to CEM cells and allowed to bind.

[14] = target: T1, CXCR4; test: 125I-CXCL12 binding competition on CEM cells (first experiment); conditions: 100 pM 125I-CXCL12
Method: A comparison of anti-CXCR4 antibodies on blocking CXCL12 binding to CEM cells was performed by a standard radio-labeled ligand binding assay. The anti-CXCR4 antibodies were serially diluted 1:3 to yield a range of concentrations from 300 nM to 137 pM. […] An irrelevant antibody of the same isotype was used as a negative control.

T1 sequence (P61073 whole entry): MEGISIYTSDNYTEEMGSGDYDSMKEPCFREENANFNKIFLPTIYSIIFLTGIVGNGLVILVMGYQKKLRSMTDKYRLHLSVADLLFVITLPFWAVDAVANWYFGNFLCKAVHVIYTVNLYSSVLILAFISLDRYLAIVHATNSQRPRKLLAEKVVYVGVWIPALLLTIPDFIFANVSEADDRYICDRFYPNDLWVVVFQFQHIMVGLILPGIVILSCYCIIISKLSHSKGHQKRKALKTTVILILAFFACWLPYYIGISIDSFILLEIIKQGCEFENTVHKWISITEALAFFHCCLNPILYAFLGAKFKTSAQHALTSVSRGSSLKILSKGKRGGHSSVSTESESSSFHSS

Molecule: CC(C)C[C@H](NC(=O)[C@H](Cc1ccccc1)NC(=O)c1cnccn1)B(O)O [bortezomib, reference compound]
mean tumor growth inhibition ([1]; Day 44, compared to isotype control, MDX-1338 10 mg/kg, lenalidomide 50 mg/kg, bortezomib 0.8 mg/kg): 70%
median tumor growth inhibition ([2]; Day 24, compared to vehicle control, MDX-1338 10 mg/kg/dose IP, bortezomib 0.8 mg/kg/dose IV): 75%
tumor growth inhibition [3]: Neither lenalidomide nor bortezomib alone inhibited tumor growth
efficacy in inhibiting tumor growth [4]: marginal efficacy
efficacy in MOLP8 tumors [5]: relatively resistant

Molecule: CC[C@@]1(O)C(=O)OCc2c1cc1n(c2=O)Cc2cc3ccccc3nc2-1 [Camptothecin]
inhibition of Ramos cell proliferation ([6]; 10 μM): completely inhibited cell proliferation

Molecule: c1cc(CN2CCCNCCNCCCNCC2)ccc1CN1CCCNCCNCCCNCC1 [AMD3100, Plerixafor]
percent of cells Annexin V/PI double positive [7]: 2.7%
percent of cells positive for Annexin V only [7]: 2.0%
inhibition of Ramos cell proliferation [6]: did not inhibit proliferation

Molecule: Nc1cccc2c1CN(C1CCC(=O)NC1=O)C2=O (stereo not shown) [lenalidomide, reference compound]
efficacy in RPMI-8226 model ([1]; 50 mg/kg): marginal efficacy
mean tumor growth inhibition ([8]; Day 25, compared to isotype control, MDX-1338 10 mg/kg/dose, lenalidomide 100 mg/kg): 70%
tumor growth inhibition ([8]; MM.1S): REVLIMID ® = 70%
efficacy in OPM-2 model ([2]; lenalidomide 50 mg/kg/dose IP): minimal efficacy
tumor growth inhibition [3]: Neither lenalidomide nor bortezomib alone inhibited tumor growth
efficacy in inhibiting tumor growth [4]: ineffective in inhibiting tumor growth
tumor growth inhibition ([5]; MOLP8): alone = 35%
efficacy in MOLP8 tumors [5]: relatively resistant

inhibition of CXCL12α-induced migration [10]: did not significantly inhibit migration
inhibition of CXCL12α-induced calcium flux [11]: did not significantly inhibit
blockade of CXCL12 binding to CXCR4 [14]: did not effectively block CXCL12 binding
B1: E2: human anti-CXCR4 monoclonal antibody; VH SEQ ID NO: 28, VL SEQ ID NO: 32 (antibody, listed as Homo sapiens, V domains shown)
VH: EVQLVQSGGGLVQPGGSLRLSCAAAGFTFSSYSMNWVRQAPGKGLEWVSYISSRSRTIYYADSVKGRFTISRDNAKNSLYLQMNSLRDEDTAVYYCARDYGGQPPYHYYYGMDVWGQGTTVTVSS
VL: EIVLTQSPSSLSASVGDRVTITCRASQGISNWLAWYQQKPEKAPKSLIYAASSLQSGVPSRFSGSGSGTDFTLTISSLQPEDFATYYCQQYNSYPRTFGQGTKVEIK
inhibition of Ramos cell proliferation (3H-thymidine incorporation) [9]: able to inhibit Ramos cell proliferation
inhibition of capillary tube formation [12]: did not inhibit capillary tube formation
ability to compete with F9 for binding to CEM cells [13]: able to compete with F9; also recorded: partial inhibition at high concentrations

inhibition of CXCL12α-induced migration [10]: did not significantly inhibit migration
ability to compete with F9 for binding to CEM cells [13]: able to compete with F9
B2: D1: human anti-CXCR4 monoclonal antibody; VH SEQ ID NO: 27, VL SEQ ID NO: 31 (antibody, listed as Homo sapiens, V domains shown)
VH: EVQLVQSGGGLVQPGGSLRLSCAAAGFTFSSYSMNWVRQAPGKGLEWVSYISSRSKTIYYADSVKGRFTISRDNARNSLYLQMNSLRDEDTAVYYCARDYGGQPPYYYYYGMDVWGQGTTVTVSS
VL: VIWVTQSPSSLSASVGDRVTITCRTSQGISSWLAWYQQKPEKAPELLIYAASSLQSGVPSRFSGSGSGTDFTLTISSLQPEDFATYYCQQYNSYPRTFGQGTKVEIK
